This is an account of results in US9603364B2 (Dow AgroSciences LLC, priority 2013, dated 2017).

What all share (experiment): General post-emergent herbicidal activity, foliar application
What all share (assay type): in vivo

One experiment relates to Oryza sativa L. (rice). Particulars: scored after 14 days. As for the experimental part:
(§1) A weighed amount, determined by the highest rate to be tested, of each test compound was placed in a 25 mL glass vial and was dissolved in 4 mL of a 97:3 v/v (volume/volume) mixture of acetone and dimethyl sulfoxide to obtain concentrated stock solutions which will be referred to as General Purpose Solvent. […] The concentrated stock solutions obtained were diluted with 20 mL of an aqueous mixture containing water, General Purpose Solvent, isopropyl alcohol, Atplus 411F crop oil concentrate, and Triton X-155 surfactant in a 46:42:12:1.0:0.02 v/v ratio to obtain spray solutions containing the highest application rates. Additional application rates were obtained by serial dilution of 12 mL of the high rate solution into a solution containing 2 mL of 97:3 v/v (volume/volume) mixture of acetone and dimethyl sulfoxide and 10 mL of an aqueous mixture containing water, General Purpose Solvent, isopropyl alcohol, Atplus 411F crop oil concentrate, and Triton X-155 surfactant in a 46:42:12:1.0:0.02 v/v ratio to obtain 1/2×, 1/4×, 1/8× and 1/16× rates of the high rate. […] Control plants were sprayed in the same manner with the solvent blank.
(§2) The treated plants and control plants were placed in a greenhouse as described above and watered by sub-irrigation to prevent wash-off of the test compounds. After 14 days, the condition of the test plants as compared with that of the untreated plants was determined visually and scored on a scale of 0 to 100 percent where 0 corresponds to no injury and 100 corresponds to complete kill.

The next experiment deals with Zea mays L. (corn). The conditions noted are these: 336 h, scored after 14 days, read-out: % Visual Growth Reduction ZEAMX. As for the experimental part: as §1, §2
Experiment [1] has as its system Euphorbia heterophylla L. (poinsettia, wild). Particulars: for pest or weed control at 140 g/ha: 140 g ai/ha. As for the experimental part:
as §1, §2
(§3) By applying the well-accepted probit analysis as described by J. Berkson in […], 48, 565 (1953) and by D. Finney in “Probit Analysis” Cambridge University Press (1952), the dose response data gathered as expressed above can be used to calculate GR20, GR50 and GR80 values, which are defined as growth reduction factors that correspond to the effective dose of herbicide required to kill or control 20 percent, 50 percent or 80 percent, respectively, of a target plant. Data not expressed in Table A may have been used to calculate some of the GR80 values in Table B. In some cases, the GR80 values may be extrapolations calculated based on the slope of the dose response curve for individual compounds listed in Table B.

Experiment [2] deals with Viola tricolor L. (pansy). Particulars: for pest or weed control at 140 g/ha: 140 g ai/ha. As for the experimental part:
as §1, §2, §3

Experiment [3] relates to Amaranthus retroflexus L. (pigweed, redroot). As for the experimental part: as §1, §2, §3
For experiment [4], the system named is Helianthus annuus L. (sunflower, common). As for the experimental part:
as §1, §2, §3

Experiment [5] concerns Echinochloa crus-galli (L.) Beauv. (barnyardgrass). The conditions noted are these: for pest or weed control at 140 g/ha: 140 g ai/ha. The protocol:
as §1, §2, §3

Experiment [6] relates to Chenopodium album L. (lambsquarters, common). The conditions noted are these: for pest or weed control at 140 g/ha: 140 g ai/ha. As for the experimental part:
as §1, §2, §3

Setting [7] is: Euphorbia heterophylla, 336 h, foliar post-emergent, scored after 14 days, read-out: % Visual Growth Reduction EPHHL.
[8] abbreviates: Viola tricolor, 336 h, foliar post-emergent, scored after 14 days, read-out: % Visual Growth Reduction VIOTR.
Where [9] appears, read: Amaranthus retroflexus, 336 h, 140 g ai/ha, foliar post-emergent, scored after 14 days, read-out: % Visual Growth Reduction AMARE.
Where [10] appears, read: Echinochloa crus-galli, 336 h, foliar post-emergent, scored after 14 days, read-out: % Visual Growth Reduction ECHCG.
Where [11] appears, read: Chenopodium album, 336 h, foliar post-emergent, scored after 14 days, read-out: % Visual Growth Reduction CHEAL.
The mark [12] stands for this setting: calculated by probit analysis, dose for 80% visual injury, may be extrapolated.
Setting [13] is: calculated, dose for 80% visual injury, prior art tables.

Regarding `COC(=O)c1nc(C(F)=C(F)F)cc(N)c1Cl` [Compound F17], the plant injury at 140 g/ha amounted to 0% in the experiment on Oryza sativa L. (rice) (Oryza sativa, 336 h, 140 g ai/ha, read-out: % Visual Growth Reduction ORYSA) and 0% in the experiment with Zea mays L. (corn) (140 g ai/ha). In addition, the pest or weed control at 140 g/ha in experiment [1] (setting [7]) stood at 0%; in experiment [2] (setting [8]), 0%; in experiment [3] (setting [9]), 0%; in experiment [4] (Helianthus annuus, 336 h, 140 g ai/ha, foliar post-emergent, scored after 14 days, read-out: % Visual Growth Reduction HELAN) it was 60%; in experiment [5] (setting [10]), 0%; in experiment [6] (setting [11]), 0%.

In the case of `COC(=O)c1nc(C(C)(C)F)c(F)c(N)c1Cl` [Compound F8, Methyl 4-amino-3-chloro-5-fluoro-6-(2-fluoropropan-2-yl)picolinate], the plant injury at 40 g/ha worked out at 0% with Oryza sativa L. (rice) (Oryza sativa, 336 h, 40 g ai/ha, read-out: % Visual Growth Reduction ORYSA) and 0% with Zea mays L. (corn) (40 g ai/ha). Besides, the plant injury at 80 g/ha turned out to be 0% in the experiment on Oryza sativa L. (rice) (Oryza sativa, 336 h, 80 g ai/ha, read-out: % Visual Growth Reduction ORYSA) and 0% in the experiment on Zea mays L. (corn) (80 g ai/ha). For the same compound, the plant injury at 160 g/ha in the experiment on Oryza sativa L. (rice) (Oryza sativa, 336 h, 160 g ai/ha, read-out: % Visual Growth Reduction ORYSA) came to 8%; in the experiment on Zea mays L. (corn) (160 g ai/ha), 0%. In addition, the pest or weed control at 40 g/ha in experiment [1] (Euphorbia heterophylla, 336 h, 40 g ai/ha, foliar post-emergent, scored after 14 days, read-out: % Visual Growth Reduction EPHHL) is 90%; in experiment [2] (Viola tricolor, 336 h, 40 g ai/ha, foliar post-emergent, scored after 14 days, read-out: % Visual Growth Reduction VIOTR), 10%; in experiment [3] (Amaranthus retroflexus, 336 h, 40 g ai/ha, foliar post-emergent, scored after 14 days, read-out: % Visual Growth Reduction AMARE) it was 90%; in experiment [4] (Helianthus annuus, 336 h, 40 g ai/ha, foliar post-emergent, scored after 14 days, read-out: % Visual Growth Reduction HELAN), 90%; in experiment [5] (Echinochloa crus-galli, 336 h, 40 g ai/ha, foliar post-emergent, scored after 14 days, read-out: % Visual Growth Reduction ECHCG), 0%; in experiment [6] (Chenopodium album, 336 h, 40 g ai/ha, foliar post-emergent, scored after 14 days, read-out: % Visual Growth Reduction CHEAL), 90%. Besides, the pest or weed control at 80 g/ha in experiment [1] (Euphorbia heterophylla, 336 h, 80 g ai/ha, foliar post-emergent, scored after 14 days, read-out: % Visual Growth Reduction EPHHL) was found to be 100%; in experiment [2] (Viola tricolor, 336 h, 80 g ai/ha, foliar post-emergent, scored after 14 days, read-out: % Visual Growth Reduction VIOTR), 50%; in experiment [3] (Amaranthus retroflexus, 336 h, 80 g ai/ha, foliar post-emergent, scored after 14 days, read-out: % Visual Growth Reduction AMARE) it was 100%; in experiment [4] (Helianthus annuus, 336 h, 80 g ai/ha, foliar post-emergent, scored after 14 days, read-out: % Visual Growth Reduction HELAN), 90%; in experiment [5] (Echinochloa crus-galli, 336 h, 80 g ai/ha, foliar post-emergent, scored after 14 days, read-out: % Visual Growth Reduction ECHCG), 0%; in experiment [6] (Chenopodium album, 336 h, 80 g ai/ha, foliar post-emergent, scored after 14 days, read-out: % Visual Growth Reduction CHEAL), 90%. For the same compound, the pest or weed control at 160 g/ha in experiment [1] (Euphorbia heterophylla, 336 h, 160 g ai/ha, foliar post-emergent, scored after 14 days, read-out: % Visual Growth Reduction EPHHL) was 100%; in experiment [2] (Viola tricolor, 336 h, 160 g ai/ha, foliar post-emergent, scored after 14 days, read-out: % Visual Growth Reduction VIOTR), 70%; in experiment [3] (Amaranthus retroflexus, 336 h, 160 g ai/ha, foliar post-emergent, scored after 14 days, read-out: % Visual Growth Reduction AMARE), 100%; in experiment [4] (Helianthus annuus, 336 h, 160 g ai/ha, foliar post-emergent, scored after 14 days, read-out: % Visual Growth Reduction HELAN), 90%; in experiment [5] (Echinochloa crus-galli, 336 h, 160 g ai/ha, foliar post-emergent, scored after 14 days, read-out: % Visual Growth Reduction ECHCG) it was 50%; in experiment [6] (Chenopodium album, 336 h, 160 g ai/ha, foliar post-emergent, scored after 14 days, read-out: % Visual Growth Reduction CHEAL) it was 90%. Further, the “GR80 Value EPHHL” value in experiment [1] (setting [12]) is 17.9 g ai/ha. Also, the “GR80 Value VIOTR” value in experiment [2] (setting [12]) is 185 g ai/ha. Besides, in experiment [3] (setting [12]), the “GR80 Value AMARE” value was 25.1 g ai/ha. Further, in experiment [4] (setting [12]), the “GR80 Value HELAN” value was 18.6 g ai/ha. The “GR80 Value ECHCG” value in experiment [5] (setting [12]) is recorded as 213 g ai/ha. For the same compound, in experiment [6] (setting [12]), the “GR80 Value CHEAL” value is listed as 36.9 g ai/ha.

Consider `COC(=O)c1nc(C(F)(F)F)cc(N)c1Cl` [Prior Art 1, reference compound], for which the “% Visual Growth Reduction ORYSA” value with Oryza sativa L. (rice) (35 g ai/ha) came to 0%. Also, the plant injury at 35 g/ha in the experiment on Oryza sativa L. (rice) (Oryza sativa, 336 h, 35 g ai/ha, read-out: % Visual Growth Reduction ORYSA) was determined as 0%; in the experiment with Zea mays L. (corn) (35 g ai/ha) it was 0%. Moreover, the pest or weed control at 35 g/ha in experiment [1] (Euphorbia heterophylla, 336 h, 35 g ai/ha, foliar post-emergent, scored after 14 days, read-out: % Visual Growth Reduction EPHHL) amounted to 80%; in experiment [5] (Echinochloa crus-galli, 336 h, 35 g ai/ha, foliar post-emergent, scored after 14 days, read-out: % Visual Growth Reduction ECHCG), 0%; in experiment [6] (Chenopodium album, 336 h, 35 g ai/ha, foliar post-emergent, scored after 14 days, read-out: % Visual Growth Reduction CHEAL), 80%. Also, the pest or weed control at 70 g/ha was found to be 85% in experiment [1] (Euphorbia heterophylla, 336 h, 70 g ai/ha, foliar post-emergent, scored after 14 days, read-out: % Visual Growth Reduction EPHHL); 80% in experiment [3] (Amaranthus retroflexus, 336 h, 70 g ai/ha, foliar post-emergent, scored after 14 days, read-out: % Visual Growth Reduction AMARE); 0% in experiment [5] (Echinochloa crus-galli, 336 h, 70 g ai/ha, foliar post-emergent, scored after 14 days, read-out: % Visual Growth Reduction ECHCG); 85% in experiment [6] (Chenopodium album, 336 h, 70 g ai/ha, foliar post-emergent, scored after 14 days, read-out: % Visual Growth Reduction CHEAL). The pest or weed control at 140 g/ha in experiment [1] (setting [7]) was 95%; in experiment [2] (setting [8]) it was 95%; in experiment [3] (setting [9]) it was 100%; in experiment [5] (setting [10]), 0%; in experiment [6] (setting [11]) it was 100%. In addition, in experiment [2] (setting [13]), the “GR80 Values VIOTR” value is 121 g/ha. Besides, the “% Visual Growth Reduction AMARE” value in experiment [3] (140 g ai/ha, foliar post-emergent, scored after 14 days) was 100%. Moreover, the “GR80 Values ECHCG” value in experiment [5] (setting [13]) was over 140 g/ha.
